Assay results published in patent publication US8293211B2, “CB1 receptor antagonists and uses thereof” (MAKScientific, LLC, priority 2007, dated 2012).
Like-named read-outs stand apart in the source and are kept apart here.

Experiments:
[1] = system: Male Sprague-Dawley (SD) rats; assay: Food intake studies (experiments A, B, C), food intake and body weight; assay type: in vivo, rat; conditions: for food intake, difference to rats treated with Compound 3: 5 mg kg-1 each
Experimental: All experimental protocols were approved by internal guidelines. Different concentrations of drugs were administered I.P. in a 1 ml kg-1 (milliliters per kilogram) volume, except M6G, which was given s.c. (subcutaneously) in a 0.1 ml kg-1 volume.
Food and water were presented in inverted glass bottles that attached to the outside of the cage. Food was available for 18 h each day starting at 16:00 h (12 h light-dark cycle; lights off 16:00 h).
Intake measurements were taken at 1.5 h, 3 h, 5 h, and 18 h after food became available.
Rats were habituated to testing and handling procedures as before. […] Food intake and body weight were monitored daily.
On the day of the experiment each rat received only a single injection, 30 min later food was made available as described in experiment 1. Food intake was measured 0.5, 1.5, 3, 5, and 18 h after administration. Food intake and body weight were monitored daily for five days after the experiment to assess the sustained effect of a single administration of each compound.

CB1 receptor = CB1 receptor (Rattus norvegicus, UniProt P20272); assay: Thermoregulation assay: hypothermia induced by the CB1 agonist CP55,940; assay type: in vivo; set-up: antagonized CB1 receptors in vivo; from tissue; host or cells: whole animal, male SD rats; conditions: 5 mg kg-1 pre-treatment 45 min before CP55,940 0.3 mg kg-1; compared with vehicle
Experimental: Briefly, silicone coated temperature data loggers (SubCue Inc, Calgary, Canada) were surgically implanted into the abdominal cavity of male SD (450-500 g) rats under isoflurane anesthesia (4% induction; 2-2.5% maintenance). Rats were allowed to recover for 3 days before being acclimatized to testing and handling procedures for an additional seven days. Core body temperature readings were sampled every 5 min for 300 min during the course of each experiment.

hCB1 = target: T1, hCB1 (Homo sapiens, UniProt P21554); assay: Forskolin-stimulated cAMP assay; assay type: cell-based; conditions: HEK293 cells transfected with human CB1 receptors
T1 construct: expressed in transfected cells; host or cells: HEK293
Experimental: Intracellular cAMP levels were measured with a competitive protein-binding assay using intact HEK293 cells expressing hCB1 or hCB2 and a cAMP immunoassay kit from Sigma (St. Louis, Mo.). In short, forskolin stimulated cells were incubated with various concentrations of compound, cAMP anti-body and cAMP conjugate for 2 hours at ambient temperature. The reaction was stopped by emptying the wells followed by the addition of p-NPP substrate and incubation for 1 hour. […] The results were expressed as percent inhibition of forskolin-stimulated cAMP accumulation and EC50 curves were generated with the use of GraphPad Prism software.

Rats = assay: Operant lever pressing on FR5 schedules; assay type: in vivo, rat; conditions: for ED50: Rattus norvegicus
Experimental: Following the initial training period, rats (n=8 each group) were injected with drug and then tested once a week on Thursdays. For experiments 1 and 2, Compound 3 or Compound 2, respectively were injected IP at doses of 1.0, 2.0, 4.0, or 8.0 mg/kg or vehicle. Pretreatment time for these two experiments was 30 min. For experiments 3 and 4, rats were given drug or vehicle orally 1 hour before testing. In experiment 3, rats were given vehicle or 8.0, 16.0, or 32.0 mg/kg Compound 3. In experiment 4, rats received vehicle or Compound 2 at doses of 4.0, 8.0, or 16.0 mg/kg. All doses were given in a randomized order using a repeated measures design.

T1 sequence (P21554 whole entry): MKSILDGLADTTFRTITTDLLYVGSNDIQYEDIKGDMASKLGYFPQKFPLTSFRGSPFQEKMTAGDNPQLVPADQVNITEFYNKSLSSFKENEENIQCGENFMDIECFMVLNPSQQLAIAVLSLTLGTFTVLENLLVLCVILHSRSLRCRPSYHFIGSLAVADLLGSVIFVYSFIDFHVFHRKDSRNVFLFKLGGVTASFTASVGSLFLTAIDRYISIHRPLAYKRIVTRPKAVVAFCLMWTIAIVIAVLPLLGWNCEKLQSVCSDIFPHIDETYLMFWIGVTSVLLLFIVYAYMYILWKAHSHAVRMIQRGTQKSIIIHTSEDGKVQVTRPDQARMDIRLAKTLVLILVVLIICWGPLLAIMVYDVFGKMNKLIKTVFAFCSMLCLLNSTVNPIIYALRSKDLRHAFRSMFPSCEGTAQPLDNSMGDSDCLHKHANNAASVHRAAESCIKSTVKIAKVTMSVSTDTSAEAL
CB1 receptor, sequence (P20272 whole entry): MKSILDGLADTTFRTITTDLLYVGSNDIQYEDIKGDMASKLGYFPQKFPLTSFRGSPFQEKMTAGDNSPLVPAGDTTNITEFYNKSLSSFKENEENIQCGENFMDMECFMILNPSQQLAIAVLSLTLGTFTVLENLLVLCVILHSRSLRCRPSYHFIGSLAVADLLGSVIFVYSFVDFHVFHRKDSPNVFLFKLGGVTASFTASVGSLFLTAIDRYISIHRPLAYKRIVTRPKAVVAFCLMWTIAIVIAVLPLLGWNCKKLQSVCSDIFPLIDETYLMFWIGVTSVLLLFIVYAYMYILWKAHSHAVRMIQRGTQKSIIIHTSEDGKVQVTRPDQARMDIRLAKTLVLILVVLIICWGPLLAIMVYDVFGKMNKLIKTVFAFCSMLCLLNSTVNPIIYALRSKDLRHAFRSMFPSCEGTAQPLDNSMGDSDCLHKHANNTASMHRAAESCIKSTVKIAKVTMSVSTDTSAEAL

SMILES	acute effect on food intake compared with vehicle ([1]; experiment A, 5 mg kg-1 I.P. single dose)	food intake, difference to rats treated with Compound 3 ([1]; experiment A, 5 h) [g]	food intake, difference to rats treated with Compound 3 ([1]; experiment A, 18 h) [g]	early effect on food intake at each time point ([1]; experiment C, 5 mg kg-1 single dose)	weight gain for several days after the experiment ([1]; experiment C, single administration (Compound 1 5 mg kg-1; Compound 3 10, 20 mg kg-1))	hypothermic effect of CP55,940 (CB1 receptor)	effect on forskolin stimulated cAMP production (hCB1)	suppression of FR5 responding compared to vehicle (Rats; IP 1.0, 2.0, 4.0, 8.0 mg/kg)	ED50 (Rats; IP, pretreatment 30 min, read-out: ED50 for the effect on FR5 responding) [mg/kg]	ED50 (Rats; oral, 1 hour before testing, read-out: ED50 for suppression of lever pressing on FR5) [mg/kg]	change in lever pressing on FR5 compared to vehicle (Rats; oral, 1 hour before testing (Compound 3 8.0-32.0 mg/kg; Compound 2 4.0-16.0 mg/kg))
Cc1c(C(=O)NN2CCCCC2)nn(-c2ccc(Cl)cc2Cl)c1-c1ccc(I)cc1 [Compound 1, N-(Piperidin-1-yl)-5-(4-iodophenyl)-1-(2,4-dichlorophenyl)-4-methyl-1H-pyrazole-3-carboxamide, reference compound]	significantly reduced food intake	-15.5	-26.1	significantly reduced food intake	significantly reduced	significantly attenuated					
Cc1c(C(=O)NN2CCOCC2)nn(-c2ccc(Cl)cc2Cl)c1-c1ccc(C#CCCC#N)cc1 [Compound 2]							no effect	significantly suppressed	0.576	1.49	dose-dependent decrease
